The text below walks through data of ChEMBL document CHEMBL5579851, “Synthesis and antifungal evaluation of novel triazole derivatives bearing a pyrazole-methoxyl moiety” (Eur J Med Chem, 2024).

Values after ≈ are worked out from the molar mass of the structure shown. Active and inactive are the calls of the source. The calls are words filed in the database; no cut-off is given here.

The target in data set [1] is T1, Lanosterol 14-alpha demethylase (Candida albicans (strain SC5314 / ATCC MYA-2876) (Yeast), UniProt P10613). Nature of the data set: Inhibition of CYP51 in Candida albicans SC5314 assessed as lanosterol level at 0.0625 ug/ml after 8 hrs by GC-MS analysis (reference value: 5.9 %). The settings on record: at 0.0625 µg/mL. Further details: scale not given: the % may be the effect or the level left.
T1 sequence (P10613 whole entry): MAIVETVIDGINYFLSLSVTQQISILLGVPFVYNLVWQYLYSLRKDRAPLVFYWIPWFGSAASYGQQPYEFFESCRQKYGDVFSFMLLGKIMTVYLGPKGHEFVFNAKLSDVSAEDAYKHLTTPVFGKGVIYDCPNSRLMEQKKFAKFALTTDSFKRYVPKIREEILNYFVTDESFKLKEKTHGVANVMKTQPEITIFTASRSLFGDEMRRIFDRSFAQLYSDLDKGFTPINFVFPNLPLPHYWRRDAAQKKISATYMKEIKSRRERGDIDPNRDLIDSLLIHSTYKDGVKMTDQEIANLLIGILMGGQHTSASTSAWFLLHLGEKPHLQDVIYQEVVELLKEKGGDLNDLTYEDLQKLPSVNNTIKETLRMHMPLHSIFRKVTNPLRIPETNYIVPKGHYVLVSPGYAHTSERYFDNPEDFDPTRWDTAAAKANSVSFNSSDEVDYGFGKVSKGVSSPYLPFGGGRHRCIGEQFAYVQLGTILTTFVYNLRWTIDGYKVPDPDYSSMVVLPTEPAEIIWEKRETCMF

Another data set relates to Candida albicans. Nature of the data set: Antifungal activity against Candida albicans SC5314 assessed as inhibition of hyphae length after 3 hrs by inverted microscopic analysis. The data set is classed as functional, organism-based. Conditions: dose 0.0625-1 µg/ml.
The subject of a further data set is Candida tropicalis. Put plainly: Antifungal activity against Candida tropicalis 8915 assessed as inhibition of fungal growth incubated for 48 hrs by CLSI based broth microdilution assay. The data set is classed as functional.
The next data set relates to Nakaseomyces glabratus. Put plainly: Antifungal activity against Candida glabrata 537 assessed as inhibition of fungal growth incubated for 48 hrs by CLSI based broth microdilution assay. It is filed as functional. (In general: Broth dilution looks for growth in wells or tubes with falling amounts of substance.)
Data set [2] has as its target T1, Lanosterol 14-alpha demethylase. Put plainly: Inhibition of CYP51 in Candida albicans SC5314 assessed as 14alpha-methylfecosterol level at 0.0625 ug/ml after 8 hrs by GC-MS analysis relative to control. Conditions: at 0.0625 µg/mL. Also on record: scale not given: the % may be the effect or the level left.
The subject of data set [3] is Cryptococcus neoformans. Nature of the data set: Antifungal activity against Cryptococcus neoformans 32609 assessed as inhibition of fungal growth incubated for 72 hrs by CLSI based broth microdilution assay. It is filed as functional.
In data set [4] the test system is Saccharomyces cerevisiae. Nature of the data set: Antifungal activity against recombinant Saccharomyces cerevisiae Y2300 overexpressing ScErg11 assessed as inhibition of fungal growth incubated for 48 hrs by CLSI based broth microdilution assay. The data set is classed as functional.
Data set [5] concerns Saccharomyces cerevisiae. Put plainly: Antifungal activity against recombinant Saccharomyces cerevisiae Y2513 overexpressing ScErg11 Y140H mutant assessed as inhibition of fungal growth incubated for 48 hrs by CLSI based broth microdilution assay. It is filed as functional.
Data set [6] relates to Saccharomyces cerevisiae. Put plainly: Antifungal activity against recombinant Saccharomyces cerevisiae Y570 overexpressing CaCdr1 assessed as inhibition of fungal growth incubated for 48 hrs by CLSI based broth microdilution assay. The data set is classed as functional.
Data set [7] addresses T1, Lanosterol 14-alpha demethylase. Put plainly: Inhibition of CYP51 in Candida albicans SC5314 assessed as ergosterol level at 0.0625 ug/ml after 8 hrs by GC-MS analysis (reference value: 86.2 %). The settings on record: at 0.0625 µg/mL. Further details: scale not given: the % may be the effect or the level left.
Another data set relates to [Candida] auris. Put plainly: Antifungal activity against fluconazole-resistant Candida auris 918 assessed as inhibition of fungal growth incubated for 48 hrs by CLSI based broth microdilution assay. The data set is classed as functional. The settings on record: Candidozyma auris.
For data set [8], the system named is Cryptococcus neoformans. Nature of the data set: Antifungal activity against Cryptococcus neoformans 32609 assessed as inhibition of fungal growth at 0.125 ug/ml measured up to 48 hrs by TECAN plate reader analysis. It is filed as functional, organism-based. Conditions: dose 0.125 µg/ml.
Data set [9] relates to Saccharomyces cerevisiae. Put plainly: Antifungal activity against recombinant Saccharomyces cerevisiae Y2374 overexpressing CgErg11 assessed as inhibition of fungal growth incubated for 48 hrs by CLSI based broth microdilution assay. The data set is classed as functional.

What is called MIC is the least concentration at which growth counts as inhibited. Take `C[C@@H](OCc1ccn(Cc2ccc(Cl)cc2)n1)[C@](O)(Cn1cncn1)c1ccc(F)cc1F`: the results for the Activity in data set [1], in data set [2] and in data set [7] were > 25%, ~ 20% and 0%, respectively. In the data set with Candida albicans, the inhibition result is “Dose-Dependent Effect”. Besides, the MIC in the data set with Candida tropicalis was 0.25 µg/mL (≈ 0.528 µM); in the data set with Nakaseomyces glabratus, ≤ 0.125 µg/mL; with Cryptococcus neoformans [3], ≤ 0.125 µg/mL; in the data set on Saccharomyces cerevisiae [4] it was 0.0313 µg/mL; in the data set on Saccharomyces cerevisiae [5], 8 ng/mL; in the data set on Saccharomyces cerevisiae [6] it was 16 µg/mL. Besides, the MIC in data set [Candida] auris was 8 µg/mL (≈ 16.9 µM); in the data set on Saccharomyces cerevisiae [9], 8 ng/mL. The inhibition result with Cryptococcus neoformans [8] is “Active”.
